Results as given in patent US11691962B2 (eXIthera Pharmaceuticals, Inc., priority 2018, dated 2023).

Key:
Thrombin = Thrombin (Homo sapiens (Human), UniProt P00734); experiment: Dose response assay for protease inhibitors: thrombin; assay type: biochemical; conditions: selectivity, thrombin over Factor XIa
Method in brief: (§1)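 Fluorogenic AMC-peptide cleavage in 20 mM Hepes pH 7.4, 150 mM NaCl, 0.02% Tween 20; 100 μM stock substrate dilution (Glp-Pro-Arg-AMC for thrombin/trypsin; Pro-Phe-Arg-AMC or Boc-Leu-Gly-Arg-AMC for Factor Xa). Enzyme diluted to 0.5 nM, added last to two-fold compound series; kinetic read at 30° C, 30 min (Factor Xa 60 min); IC50 fitted.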

Trypsin = experiment: Dose response assay for protease inhibitors: trypsin; assay type: biochemical; conditions: selectivity, trypsin over Factor XIa
Method in brief: as §1

Factor Xa = Factor Xa (Homo sapiens (Human), UniProt P00742); experiment: Dose response assay for protease inhibitors: Factor Xa; assay type: biochemical; conditions: selectivity, Factor Xa over Factor XIa
Method in brief: as §1

[1] = Metabolic stability in dog hepatocytes; assay type: in vitro ADME; conditions: pooled cryopreserved hepatocytes; beagle dog hepatocytes, 2 μM compound; read-out: Dog Hepatocyte Stability (t1/2)
Method: The following procedure was used to determine the stability of test compounds in beagle dog hepatocytes in a 96-well plate format. The test compounds, including the controls, imipramine and 7-ethoxycoumarin, were dissolved at 10 mM in DMSO, followed by further 5-fold dilution with DMSO to 2 mM. Pooled cryopreserved beagle dog hepatocytes were thawed and transferred into complete medium. Cells were gently centrifuged (700 rpm for 5 min) and the pellet rinsed with KHB (Krebs Henseleit buffer). Cells were resuspended, counted using Trypan blue, and adjusted to 1 million cells/mL in KHB buffer. The 2 mM compound stock solutions were diluted 10-fold with acetonitrile, followed by a further 50-fold dilution with KHB buffer. 200 μL of these compound solutions were transferred to 96-well polypropylene assay plates and an equal volume of the hepatocyte solution was added and mixed to initiate the reaction (final assay concentrations were 2 μM compound and 500,000 cells/mL). Assay plates were incubated at 37° C. in 5% CO2 with gentle agitation. 50 μL aliquots were removed at multiple time points out to 180 minutes and quenched with 6 volumes of cold acetonitrile (containing 250 ng/mL of carbutamide and chrysin as internal standards) to terminate the reaction and precipitate protein. Quenched samples were maintained on ice. The quenched samples were centrifuged at 2000×g (3100 rpm) for 10 minutes at 4° C. 50 μL aliquots of the supernatants were removed and diluted with 100 μL Milli-Q water to reduce the % organic content prior to bioanalysis by LC-MS/MS. Peak areas corresponding to the test compound were recorded. The compound remaining was calculated by comparing the peak area at each time point to time zero. Data were analyzed and results were calculated using Microsoft Excel 2010.

[2] = Plasma protein binding by equilibrium dialysis; assay type: in vitro ADME; conditions: both sexes, pH 7.4, pooled human plasma, 4 hours at 37° C., read-out: PPB (%)
Method: The following procedure was used to determine the plasma protein binding of a test compound in pooled plasma from human (mixed gender) via equilibrium dialysis in a 96-well plate format. The dialysate compartment was loaded with phosphate-buffered saline (pH 7.4) and the sample side was loaded with plasma spiked with the test compound at a concentration of 10 μM. After loading, samples were covered and incubated for 4 hours at 37° C. After incubation, each compartment was sampled, diluted with acetonitrile/buffer and centrifuged. The supernatants were analyzed by HPLC-MS/MS. The analyte peak areas obtained from HPLC-MS/MS analysis of each sample were used to calculate protein binding according to the following equation (Equation 4):
[formula] where: AREAp=Peak area of analyte in protein matrix; AREAb=Peak area of analyte in buffer.
The amount measured in the plasma compartment included both free and bound drug, while that on the buffer side represented free drug only; the differences were used to calculate the percentage plasma protein bound. Three reference compounds were tested in each assay: acebutolol, quinidine and warfarin.

Sequence of Factor Xa (P00742 235-488): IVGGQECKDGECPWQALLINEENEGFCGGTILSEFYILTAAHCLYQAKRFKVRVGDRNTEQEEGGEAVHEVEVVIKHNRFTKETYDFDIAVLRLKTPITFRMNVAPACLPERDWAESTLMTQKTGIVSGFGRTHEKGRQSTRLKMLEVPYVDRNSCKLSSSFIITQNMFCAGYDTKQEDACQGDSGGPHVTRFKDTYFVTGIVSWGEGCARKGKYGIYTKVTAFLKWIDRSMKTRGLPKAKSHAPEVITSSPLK
Sequence of Factor Xa (P00742 41-179 partner): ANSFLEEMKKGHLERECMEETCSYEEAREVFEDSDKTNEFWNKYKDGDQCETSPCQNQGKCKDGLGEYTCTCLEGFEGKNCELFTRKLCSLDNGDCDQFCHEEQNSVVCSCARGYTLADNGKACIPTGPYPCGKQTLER

Compound	Ratio: Thrombin/FXIa (Thrombin)	Ratio: FXa/FXIa (Factor Xa)	half-life at 2 μM [1] [h]	fraction unbound at 4 h, 10 μM [2]	Ratio: Trypsin/FXIa (Trypsin)
CC[C@@H](NC(=O)N1C(=O)[C@H](Cc2ccnc(N)c2)[C@H]1C(=O)N(C)c1cscn1)c1ccccc1 [Compound 1-8, (2S,3R)-3-((2-aminopyridin-4-yl)methyl)-N2-(4-thiazolyl)-N1-((R)-1-phenylpropyl)-N2-methyl-4-oxoazetidine-1,2-dicarboxamide]	G (“G” indicates 1-100)	H (“H” indicates 101-1000)	> 4	0.1 to 0.5	G (“G” indicates 1-100)
CC[C@@H](NC(=O)N1C(=O)[C@H](Cc2cc(C)nc(N)c2)[C@H]1C(=O)N(C)c1cnn(C)c1)c1cccc(Cl)c1 [Compound 1-15, (2S,3R)-3-((2-amino-6-methylpyridin-4-yl)methyl)-N2-(1-methyl-1H-pyrazol-4-yl)-N1-((R)-1-(3-chlorophenyl)propyl)-N2-methyl-4-oxoazetidine-1,2-dicarboxamide]	G (“G” indicates 1-100)	H (“H” indicates 101-1000)	> 4	0.1 to 0.5	G (“G” indicates 1-100)
CC[C@@H](NC(=O)N1C(=O)[C@H](Cc2ccnc(N)c2)[C@H]1C(=O)N(C)c1cscn1)c1cccc(Cl)c1 [Compound 1-17, (2S,3R)-3-((2-aminopyridin-4-yl)methyl)-N2-(4-thiazolyl)-N1-((R)-1-(3-chlorophenyl)propyl)-N2-methyl-4-oxoazetidine-1,2-dicarboxamide]	H (“H” indicates 101-1000)	H (“H” indicates 101-1000)	1.02 to 2	0.05 to 0.09	G (“G” indicates 1-100)
CC[C@@H](NC(=O)N1C(=O)[C@H](Cc2ccnc(N)c2)[C@H]1C(=O)N(C)c1cnn(C)c1)c1ccc(C)nc1 [Compound 1-18, (2S,3R)-3-((2-aminopyridin-4-yl)methyl)-N2-(1-methyl-1H-pyrazol-4-yl)-N1-((R)-1-(6-methylpyridin-3-yl)propyl)-N2-methyl-4-oxoazetidine-1,2-dicarboxamide]	G (“G” indicates 1-100)	H (“H” indicates 101-1000)	2.02 to 4	< 0.5	G (“G” indicates 1-100)
CC[C@@H](NC(=O)N1C(=O)[C@H](Cc2cc(C)nc(N)c2)[C@H]1C(=O)N(C)c1ccn(C)n1)c1cccc(C)c1 [Compound 1-22, (2S,3R)-3-((2-amino-6-methylpyridin-4-yl)methyl)-N2-(1-methyl-1H-pyrazol-3-yl)-N1-((R)-1-(3-methylphenyl)propyl)-N2-methyl-4-oxoazetidine-1,2-dicarboxamide]	H (“H” indicates 101-1000)	H (“H” indicates 101-1000)	2.02 to 4	0.1 to 0.5	G (“G” indicates 1-100)
CN(C(=O)[C@@H]1[C@@H](Cc2ccnc(N)c2)C(=O)N1C(=O)N[C@@H](C1CCCCC1)C(F)(F)F)c1ccn(C)n1 [Compound 1-32, (2S,3R)-3-((2-aminopyridin-4-yl)methyl)-N2-(1-methyl-1H-pyrazol-3-yl)-N1-((S)-1-cyclohexyl-2,2,2-trifluoroethyl)-N2-methyl-4-oxoazetidine-1,2-dicarboxamide]	H (“H” indicates 101-1000)	I (“I” indicates > 500)	< 1	0.05 to 0.09	G (“G” indicates 1-100)
CC[C@@H](NC(=O)N1C(=O)[C@H](Cc2ccnc(N)c2)[C@H]1C(=O)N(C)c1nccn1C)c1cccc(Cl)c1 [Compound 1-35, (2S,3R)-3-((2-aminopyridin-4-yl)methyl)-N2-(1-methyl-1H-imidazol-2-yl)-N1-((R)-1-(3-chlorophenyl)propyl)-N2-methyl-4-oxoazetidine-1,2-dicarboxamide]	H (“H” indicates 101-1000)	H (“H” indicates 101-1000)	1.02 to 2	0.1 to 0.5	G (“G” indicates 1-100)

Second part, led by results:

Ratio: Thrombin/FXIa (Thrombin)	Ratio: FXa/FXIa (Factor Xa)	half-life at 2 μM [1] [h]	fraction unbound at 4 h, 10 μM [2]	Compound	Ratio: Trypsin/FXIa (Trypsin)
H (“H” indicates 101-1000)	I (“I” indicates > 500)	1.02 to 2	0.1 to 0.5	CC[C@@H](NC(=O)N1C(=O)[C@H](Cc2ccnc(NC)c2)[C@H]1C(=O)N(C)c1nccn1C)c1cccc(Cl)c1 [Compound 1-41, (2S,3R)-3-((2-methylaminopyridin-4-yl)methyl)-N2-(1-methyl-1H-imidazol-2-yl)-N1-((R)-1-(3-chlorophenyl)propyl)-N2-methyl-4-oxoazetidine-1,2-dicarboxamide]	G (“G” indicates 1-100)
H (“H” indicates 101-1000)	I (“I” indicates > 500)	2.02 to 4	0.1 to 0.5	CC[C@@H](NC(=O)N1C(=O)[C@H](Cc2cc(C)nc(N)c2)[C@H]1C(=O)N(C)c1nccn1C)c1cccc(Cl)c1 [Compound 1-43, (2S,3R)-3-((2-amino-6-methylpyridin-4-yl)methyl)-N2-(1-methyl-1H-imidazol-2-yl)-N1-((R)-1-(3-chlorophenyl)propyl)-N2-methyl-4-oxoazetidine-1,2-dicarboxamide]	G (“G” indicates 1-100)
H (“H” indicates 101-1000)	I (“I” indicates > 500)	1.02 to 2	0.05 to 0.09	CC[C@@H](NC(=O)N1C(=O)[C@H](Cc2cc(C)nc(NC)c2)[C@H]1C(=O)N(C)c1nccn1C)c1cccc(Cl)c1 [Compound 1-46, (2S,3R)-3-((2-methylamino-6-methylpyridin-4-yl)methyl)-N2-(1-methyl-1H-imidazol-2-yl)-N1-((R)-1-(3-chlorophenyl)propyl)-N2-methyl-4-oxoazetidine-1,2-dicarboxamide]	G (“G” indicates 1-100)
H (“H” indicates 101-1000)	I (“I” indicates > 500)	1.02 to 2	0.05 to 0.09	CC[C@@H](NC(=O)N1C(=O)[C@H](Cc2ccnc(N)c2)[C@H]1C(=O)N(C)c1ccn(C)n1)C1CCCCC1 [Compound 1-47, (2S,3R)-3-((2-aminopyridin-4-yl)methyl)-N2-(1-methyl-1H-pyrazol-3-yl)-N1-((R)-1-cyclohexylpropyl)-N2-methyl-4-oxoazetidine-1,2-dicarboxamide]	G (“G” indicates 1-100)
H (“H” indicates 101-1000)	I (“I” indicates > 500)	1.02 to 2	0.1 to 0.5	C[C@@H](NC(=O)N1C(=O)[C@H](Cc2ccnc(N)c2)[C@H]1C(=O)N(C)c1ccn(C)n1)C1CCCCC1 [Compound 1-50, (2S,3R)-3-((2-aminopyridin-4-yl)methyl)-N2-(1-methyl-1H-pyrazol-3-yl)-N1-((R)-1-cyclohexylethyl)-N2-methyl-4-oxoazetidine-1,2-dicarboxamide]	G (“G” indicates 1-100)
H (“H” indicates 101-1000)	I (“I” indicates > 500)			(2S,3R)-3-((2-amino-6-methylpyridin-4-yl)methyl)-N2-(1-methyl-1H-imidazol-2-yl)-N1-((R)-1-(3-fluorophenyl)propyl)-N2-methyl-4-oxoazetidine-1,2-dicarboxamide [Compound 1-120]	G (“G” indicates 1-100)
